Measurements reported in ChEMBL document CHEMBL1201862, “PubChem BioAssay data set” (2004).
Calls of active or inactive are those of the source.

How the values were obtained:
[1] = Late-stage results from the probe development effort to identify antagonists of arginine vasopressin receptor 1a (AVPR1a): fluorescence-based cell-based dose response OXTR inhibition counterscreen assay.; type: functional
[2] = biological target: Vasopressin V1b receptor (Homo sapiens, UniProt P47901); assay: Late-stage results from the probe development effort to identify antagonists of arginine vasopressin receptor 1a (AVPR1a): fluorescence-based cell-based dose response AVPR1b inhibition counterscreen assay.; type: functional
[3] = biological target: Vasopressin V2 receptor (Homo sapiens, UniProt P30518); assay: Late-stage results from the probe development effort to identify antagonists of arginine vasopressin receptor 1a (AVPR1a): fluorescence-based cell-based dose response AVPR2 inhibition counterscreen assay.; type: functional
Vasopressin V2 receptor, sequence (P30518 whole entry): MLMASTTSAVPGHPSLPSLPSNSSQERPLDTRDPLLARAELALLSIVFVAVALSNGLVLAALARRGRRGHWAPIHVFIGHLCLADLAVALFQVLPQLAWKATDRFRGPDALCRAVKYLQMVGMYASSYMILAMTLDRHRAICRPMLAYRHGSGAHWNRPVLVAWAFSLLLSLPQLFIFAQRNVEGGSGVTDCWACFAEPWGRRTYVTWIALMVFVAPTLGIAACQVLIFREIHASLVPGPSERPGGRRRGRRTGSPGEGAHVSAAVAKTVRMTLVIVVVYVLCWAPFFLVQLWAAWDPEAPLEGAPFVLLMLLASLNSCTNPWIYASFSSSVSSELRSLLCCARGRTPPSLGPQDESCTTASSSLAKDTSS

[4] = Late-stage results from the probe development effort to identify antagonists of arginine vasopressin receptor 1a (AVPR1a): fluorescence-based cell-based dose response AVPR1a inhibition assay.; type: functional
[5] = biological target: T1, Cytochrome P450 1A2 (Homo sapiens, UniProt P05177);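 also: PubChem cytochrome P450 panel assay, CYP1A2 panel member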
T1 sequence (P05177 whole entry): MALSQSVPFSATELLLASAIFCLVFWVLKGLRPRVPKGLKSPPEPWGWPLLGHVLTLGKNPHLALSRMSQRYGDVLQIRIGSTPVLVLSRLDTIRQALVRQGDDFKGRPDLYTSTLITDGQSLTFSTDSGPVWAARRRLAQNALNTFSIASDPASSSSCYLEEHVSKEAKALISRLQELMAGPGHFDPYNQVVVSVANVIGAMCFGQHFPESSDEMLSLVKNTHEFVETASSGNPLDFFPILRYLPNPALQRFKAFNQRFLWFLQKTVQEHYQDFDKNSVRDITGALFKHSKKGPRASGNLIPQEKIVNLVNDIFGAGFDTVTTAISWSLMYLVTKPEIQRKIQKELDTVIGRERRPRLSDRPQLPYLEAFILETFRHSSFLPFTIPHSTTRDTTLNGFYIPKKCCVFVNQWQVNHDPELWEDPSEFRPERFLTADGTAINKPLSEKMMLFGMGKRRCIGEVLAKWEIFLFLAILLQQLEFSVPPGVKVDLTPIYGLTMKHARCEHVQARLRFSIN

[6] = biological target: Ephrin type-A receptor 4 (Mus musculus, UniProt Q03137); assay: EphA4 ligand-binding antagonists – biochemical, colorimetric, mouse EphA4, primary screen (AID 689); type: functional
Ephrin type-A receptor 4, sequence (Q03137 whole entry): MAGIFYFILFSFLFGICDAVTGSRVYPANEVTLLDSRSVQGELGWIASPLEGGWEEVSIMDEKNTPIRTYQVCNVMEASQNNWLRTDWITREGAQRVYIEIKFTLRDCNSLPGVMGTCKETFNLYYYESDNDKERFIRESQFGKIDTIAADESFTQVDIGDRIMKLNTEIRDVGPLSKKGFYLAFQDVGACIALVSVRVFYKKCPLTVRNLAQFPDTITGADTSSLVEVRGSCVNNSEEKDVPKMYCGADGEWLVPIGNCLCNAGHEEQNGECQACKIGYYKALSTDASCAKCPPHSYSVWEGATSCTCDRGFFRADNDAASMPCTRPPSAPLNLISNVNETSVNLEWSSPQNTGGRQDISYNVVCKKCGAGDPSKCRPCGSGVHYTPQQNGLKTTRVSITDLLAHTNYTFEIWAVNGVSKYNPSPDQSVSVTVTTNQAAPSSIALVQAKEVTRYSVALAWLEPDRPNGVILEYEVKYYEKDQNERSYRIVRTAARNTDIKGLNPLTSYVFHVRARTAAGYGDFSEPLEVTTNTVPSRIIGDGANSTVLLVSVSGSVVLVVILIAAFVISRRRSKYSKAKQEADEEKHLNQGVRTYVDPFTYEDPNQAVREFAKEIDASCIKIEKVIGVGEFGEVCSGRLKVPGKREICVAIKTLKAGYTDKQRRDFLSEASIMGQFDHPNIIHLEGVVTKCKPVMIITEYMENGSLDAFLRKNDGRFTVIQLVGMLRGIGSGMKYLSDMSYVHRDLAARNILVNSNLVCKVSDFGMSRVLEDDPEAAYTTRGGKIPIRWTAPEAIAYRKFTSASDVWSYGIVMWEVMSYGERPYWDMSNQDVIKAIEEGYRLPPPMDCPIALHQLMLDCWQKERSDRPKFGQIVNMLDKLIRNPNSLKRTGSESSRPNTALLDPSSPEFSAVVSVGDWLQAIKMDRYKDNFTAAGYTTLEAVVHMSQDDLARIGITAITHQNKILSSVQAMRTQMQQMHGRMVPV

[7] = biological target: Cytochrome P450 2C9 (Homo sapiens, UniProt P11712)
Cytochrome P450 2C9, sequence (P11712 whole entry): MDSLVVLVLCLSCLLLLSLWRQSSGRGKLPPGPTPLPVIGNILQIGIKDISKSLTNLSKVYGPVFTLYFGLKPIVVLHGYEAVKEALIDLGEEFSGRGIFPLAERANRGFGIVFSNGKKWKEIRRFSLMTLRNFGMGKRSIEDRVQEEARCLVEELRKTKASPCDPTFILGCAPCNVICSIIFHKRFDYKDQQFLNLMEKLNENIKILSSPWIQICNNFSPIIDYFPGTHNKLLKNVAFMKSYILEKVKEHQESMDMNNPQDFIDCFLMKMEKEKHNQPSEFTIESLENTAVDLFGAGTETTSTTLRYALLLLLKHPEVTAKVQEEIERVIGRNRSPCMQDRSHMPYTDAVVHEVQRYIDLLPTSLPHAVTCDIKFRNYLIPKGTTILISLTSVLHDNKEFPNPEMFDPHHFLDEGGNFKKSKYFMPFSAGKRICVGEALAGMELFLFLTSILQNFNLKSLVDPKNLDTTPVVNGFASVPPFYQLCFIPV

[8] = NIH-3T3 fibroblast cytotoxicity, dose response, cytotoxicity control, cell-based, fluorescence, Alamar Blue, secondary assay (AID 2327); type: functional;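 also: NIH-3T3 mouse fibroblasts cultured with fluconazole at 8 µg/mL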
[9] = fluconazole-exposed Candida albicans growth modulators – fluorescence, retest, confirmation (AID 2467); type: functional, cell-based
[10] = Potency on glucagon-like peptide 1 release, dose-response in NCI-H716 cell line, half maximal inhibitory concentration (AID 1117344); type: functional, cell-based
[11] = glucagon-like peptide-1 release potency in STC-1, concentration-response, half-maximal inhibitory concentration in the STC-1 line (AID 1117345); type: functional, cell-based
[12] = biological target: Diphosphomevalonate decarboxylase (Streptococcus pneumoniae serotype 2 (strain D39 / NCTC 7466), UniProt Q9FD53); assay: diphosphomevalonate decarboxylase inhibitor confirmation – biochemical, cuvette format, coupled NADH fluorescence (AID 1028); type: functional
Diphosphomevalonate decarboxylase, sequence (Q9FD53 whole entry): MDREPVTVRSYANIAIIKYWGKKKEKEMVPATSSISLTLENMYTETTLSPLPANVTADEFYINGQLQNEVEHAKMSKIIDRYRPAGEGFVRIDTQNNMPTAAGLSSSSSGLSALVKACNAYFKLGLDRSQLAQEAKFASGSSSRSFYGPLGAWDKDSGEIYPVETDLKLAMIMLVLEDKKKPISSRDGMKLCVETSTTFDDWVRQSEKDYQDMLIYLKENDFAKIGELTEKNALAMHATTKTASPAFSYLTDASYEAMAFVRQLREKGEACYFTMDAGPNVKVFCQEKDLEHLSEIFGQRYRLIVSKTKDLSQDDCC

[13] = biological target: Genome polyprotein (Hepatitis C virus, UniProt Q2Q167); assay: disruption of hepatitis C core self-association – biochemical, TR-FRET, dose response (AID 2159); set-up: species or system Hepacivirus hominis;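 also: blocks dimerization of HCV core protein measured by TR-FRET between tagged core106 pairs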
Genome polyprotein, sequence (Q2Q167 whole entry): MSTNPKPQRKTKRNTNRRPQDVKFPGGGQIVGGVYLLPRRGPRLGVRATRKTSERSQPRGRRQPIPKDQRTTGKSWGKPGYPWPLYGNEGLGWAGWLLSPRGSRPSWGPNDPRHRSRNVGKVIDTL

[14] = biological target: Estrogen receptor (Homo sapiens, UniProt P03372);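 also: potency for inhibiting coactivator peptide recruitment to the receptor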
Estrogen receptor, sequence (P03372 whole entry): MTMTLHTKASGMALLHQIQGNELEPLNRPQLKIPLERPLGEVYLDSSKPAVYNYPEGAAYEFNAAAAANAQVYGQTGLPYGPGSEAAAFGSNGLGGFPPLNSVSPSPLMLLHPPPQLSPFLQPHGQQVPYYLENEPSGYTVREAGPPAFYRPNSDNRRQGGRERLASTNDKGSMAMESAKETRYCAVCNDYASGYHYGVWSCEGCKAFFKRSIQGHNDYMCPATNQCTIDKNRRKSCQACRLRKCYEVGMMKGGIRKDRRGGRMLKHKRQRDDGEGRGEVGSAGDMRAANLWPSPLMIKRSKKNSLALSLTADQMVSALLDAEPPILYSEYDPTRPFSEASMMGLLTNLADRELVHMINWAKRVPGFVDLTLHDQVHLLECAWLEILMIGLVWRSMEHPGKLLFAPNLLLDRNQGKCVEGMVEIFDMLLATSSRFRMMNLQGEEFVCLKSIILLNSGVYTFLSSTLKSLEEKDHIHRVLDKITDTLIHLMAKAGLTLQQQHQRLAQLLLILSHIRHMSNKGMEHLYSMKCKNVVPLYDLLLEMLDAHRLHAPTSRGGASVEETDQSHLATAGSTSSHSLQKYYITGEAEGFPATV

[15] = viability of uninfected HEp-2 cells – cell-based, HTS, cytotoxicity control for RSV inhibitor project, dose response (AID 2410); type: functional; details: human respiratory syncytial virus
[16] = test system: P388; assay: cells; type: functional; details: Mus musculus
[17] = test system: P388/ADR; assay: cells; type: functional; details: Mus musculus
[18] = rise of 2N DNA cells, HeLa – IC50, dose response (AID 1117349); type: functional, cell-based
[19] = SNU-C1 cell viability reduction, dose response, CellTiter-Glo luminescence (AID 1117323); type: functional, cell-based
[20] = test system: SN12K1; assay: cells; type: functional; details: Homo sapiens
[21] = rise of 4N DNA cells, HeLa – IC50, dose response (AID 1117351); type: functional, cell-based
[22] = HIV-1 Vif–A3G interaction blockers – biochemical, TR-FRET, GST-Vif 1-94, biotin-A3G peptide, dose response retest, primary screen (AID 1117319); type: functional;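 also: TR-FRET signal of purified GST-Vif binding a biotinylated A3G peptide; inhibitors lower the FRET signal by blocking Vif and A3G binding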
[23] = biological target: RNA-editing ligase 1, mitochondrial (Trypanosoma brucei brucei, UniProt P86926); assay: inhibition of trypanosome RNA editing ligase – biochemical, fluorescence, Trypanosoma brucei, dose response (AID 1117295); type: functional
[24] = biological target: T2, Kappa-type opioid receptor (Homo sapiens, UniProt P41145); type: functional
T2 sequence (P41145 whole entry): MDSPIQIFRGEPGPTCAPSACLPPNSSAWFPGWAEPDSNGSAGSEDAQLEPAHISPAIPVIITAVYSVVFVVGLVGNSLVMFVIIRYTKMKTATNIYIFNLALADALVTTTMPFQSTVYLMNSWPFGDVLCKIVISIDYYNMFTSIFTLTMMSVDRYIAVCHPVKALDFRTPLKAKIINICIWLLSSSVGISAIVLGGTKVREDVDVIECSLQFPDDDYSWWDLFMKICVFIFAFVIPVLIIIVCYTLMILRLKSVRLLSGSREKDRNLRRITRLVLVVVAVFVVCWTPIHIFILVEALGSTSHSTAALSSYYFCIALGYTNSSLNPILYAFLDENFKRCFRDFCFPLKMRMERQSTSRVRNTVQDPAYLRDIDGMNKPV

[25] = cells; type: functional, cell-based
[26] = cells; type: functional, cell-based; remark: listed apart in the source
[27] = biological target: Beta-galactosidase (Escherichia coli, UniProt Q8VNN2); type: functional
Beta-galactosidase, sequence (Q8VNN2 whole entry): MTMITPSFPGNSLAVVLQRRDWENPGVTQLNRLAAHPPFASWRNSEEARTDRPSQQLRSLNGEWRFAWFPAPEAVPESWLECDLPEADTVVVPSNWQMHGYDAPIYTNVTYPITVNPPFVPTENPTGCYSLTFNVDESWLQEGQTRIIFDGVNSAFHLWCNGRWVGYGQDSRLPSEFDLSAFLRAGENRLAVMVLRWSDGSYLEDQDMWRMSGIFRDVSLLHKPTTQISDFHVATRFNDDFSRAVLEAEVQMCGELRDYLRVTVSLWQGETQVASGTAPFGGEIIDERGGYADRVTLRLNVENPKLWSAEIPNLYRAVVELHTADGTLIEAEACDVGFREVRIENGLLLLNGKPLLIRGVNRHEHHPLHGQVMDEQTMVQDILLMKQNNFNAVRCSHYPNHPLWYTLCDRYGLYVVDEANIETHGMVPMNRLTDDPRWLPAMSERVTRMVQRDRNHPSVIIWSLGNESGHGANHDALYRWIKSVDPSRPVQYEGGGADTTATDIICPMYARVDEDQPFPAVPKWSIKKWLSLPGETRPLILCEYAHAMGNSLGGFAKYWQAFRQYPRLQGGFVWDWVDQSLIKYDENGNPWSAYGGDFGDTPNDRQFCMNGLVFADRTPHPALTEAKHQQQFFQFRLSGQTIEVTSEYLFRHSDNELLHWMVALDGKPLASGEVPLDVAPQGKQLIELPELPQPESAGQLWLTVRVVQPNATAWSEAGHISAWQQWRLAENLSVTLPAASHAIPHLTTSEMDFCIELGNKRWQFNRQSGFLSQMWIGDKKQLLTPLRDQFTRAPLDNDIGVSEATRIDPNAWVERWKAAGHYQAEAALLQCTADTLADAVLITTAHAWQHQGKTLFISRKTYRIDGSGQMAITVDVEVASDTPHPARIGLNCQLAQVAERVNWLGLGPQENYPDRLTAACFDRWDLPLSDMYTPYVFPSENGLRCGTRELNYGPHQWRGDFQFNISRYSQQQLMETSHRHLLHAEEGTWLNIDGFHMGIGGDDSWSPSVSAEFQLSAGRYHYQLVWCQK

[28] = Luminescence Cell-Based Dose Retest to Confirm Inhibitors of Cancer Stem Cells. [Related pubchem assays (depositor defined):AID2717, AID2721]; type: functional; details: Homo sapiens
[29] = biological target: Nonstructural protein 1 (Influenza A virus, UniProt Q194T2); type: functional, Influenza A virus (A/California/07/2009(H1N1))
[30] = biological target: E3 ubiquitin-protein ligase Mdm2 (Homo sapiens, UniProt Q00987); assay: MDM2-luc reporter signal enhancers, multi-concentration potency testing, MDM2 ubiquitin-protein ligase inhibitor program, whole-cell format, luminescence detection, 384-well microplate (AID 1394); type: functional;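 also: MDM2 E3 inhibitors raise luminescence so EC50 is for signal enhancement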
E3 ubiquitin-protein ligase Mdm2, sequence (Q00987 whole entry): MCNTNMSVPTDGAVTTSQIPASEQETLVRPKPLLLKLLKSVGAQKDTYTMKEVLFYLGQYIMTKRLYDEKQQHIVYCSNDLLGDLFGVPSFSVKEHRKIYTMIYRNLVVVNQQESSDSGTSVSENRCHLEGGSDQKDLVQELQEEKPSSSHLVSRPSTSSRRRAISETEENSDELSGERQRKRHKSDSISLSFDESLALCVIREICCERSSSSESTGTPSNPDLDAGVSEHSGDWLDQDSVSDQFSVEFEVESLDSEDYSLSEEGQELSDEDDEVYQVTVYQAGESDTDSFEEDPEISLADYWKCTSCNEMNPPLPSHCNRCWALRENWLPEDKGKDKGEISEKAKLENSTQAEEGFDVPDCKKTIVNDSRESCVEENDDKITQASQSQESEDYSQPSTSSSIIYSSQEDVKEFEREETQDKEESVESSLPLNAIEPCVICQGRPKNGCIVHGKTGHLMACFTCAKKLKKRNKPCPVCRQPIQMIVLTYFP

[31] = biological target: T2, Kappa-type opioid receptor; type: functional; remark: listed apart in the source
[32] = A Cell-Based Confirmatory Screen for Compounds that Inhibit VEEV TC-83 (4).; type: functional
[33] = A Cell-Based Confirmatory Screen for Compounds that Inhibit VEEV, TC-83 (5).; type: functional
[34] = Late stage counterscreen for inhibitors of Trypanosoma brucei methionyl tRNA synthetase (MetRS): Luminescence-based cell-based high throughput dose response assay to identify compounds that are cytotoxic to Jurkat human T lymphocyte cells.; type: functional
[35] = biological target: T3, Methionyl-tRNA synthetase, putative (Trypanosoma brucei brucei, UniProt Q38C91); type: functional, Trypanosoma brucei brucei strain 927/4 GUTat10.1
T3 sequence (Q38C91 whole entry): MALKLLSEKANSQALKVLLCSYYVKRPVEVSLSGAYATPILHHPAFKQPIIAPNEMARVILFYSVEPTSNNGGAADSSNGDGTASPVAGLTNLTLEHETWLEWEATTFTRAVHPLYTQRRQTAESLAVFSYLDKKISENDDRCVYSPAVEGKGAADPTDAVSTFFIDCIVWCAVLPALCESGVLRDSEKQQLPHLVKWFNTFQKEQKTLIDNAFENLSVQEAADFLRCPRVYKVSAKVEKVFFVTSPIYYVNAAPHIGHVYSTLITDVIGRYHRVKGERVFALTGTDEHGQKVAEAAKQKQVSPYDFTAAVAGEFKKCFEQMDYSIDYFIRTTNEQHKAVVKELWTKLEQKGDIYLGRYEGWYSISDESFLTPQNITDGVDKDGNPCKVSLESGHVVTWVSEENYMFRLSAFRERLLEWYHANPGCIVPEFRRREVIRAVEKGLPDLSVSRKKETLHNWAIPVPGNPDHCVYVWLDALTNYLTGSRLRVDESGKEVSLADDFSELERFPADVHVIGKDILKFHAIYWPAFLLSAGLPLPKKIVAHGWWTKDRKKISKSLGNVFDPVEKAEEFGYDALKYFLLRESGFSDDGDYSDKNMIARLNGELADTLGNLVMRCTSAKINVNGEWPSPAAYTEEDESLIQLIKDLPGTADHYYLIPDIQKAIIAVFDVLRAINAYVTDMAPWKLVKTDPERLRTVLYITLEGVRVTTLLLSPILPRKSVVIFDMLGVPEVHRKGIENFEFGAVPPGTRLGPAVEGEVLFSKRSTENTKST

[36] = biological target: T3, Methionyl-tRNA synthetase, putative; type: functional, Trypanosoma brucei brucei strain 927/4 GUTat10.1; remark: listed apart in the source
[37] = Counterscreen for inhibitors of Trypanosoma brucei methionyl tRNA synthetase (MetRS): Luminescence-based cell-based high throughput dose response assay to identify compounds that are cytotoxic to Jurkat human T lymphocyte cells.; type: functional
[38] = cytotoxicity in MITF-independent A375 cells – cell-based, CellTiter-Glo luminescence, dry powder, set 4, counter-screen for MITF inhibitor project, dose response (AID 624364); type: functional; details: A-375;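 also: A375 melanoma cells are MITF independent so this is a counter screen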
[39] = viability loss in MITF-independent A375 cells – cell-based, CellTiter-Glo luminescence, dry powder, set 2, counter-screen for MITF inhibitor project, dose response (AID 624489); type: functional; details: A-375;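 also: actives are compounds lowering A375 viability meaning general cytotoxicity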
[40] = Luminescence Cell-Based Dose Confirmation HTS to Identify Inhibitors of Platelet Dense Granule Release. [Related pubchem assays: 1663 (Primary HTS), 1678 (Summary of Project)]; type: functional
[41] = Fluorescence Cell-Based Dose Response to Identify Inhibitors of Thrombin Receptor-Activating Peptide SFLLRN-Mediated P-Selectin Induction on Platelets. [Related pubchem assays: 1663 (Primary HTS), 1889 (retest at dose ), 1891 (counterscreen), 1678 (Project Summary)]; type: functional
[42] = biological target: Luciferin 4-monooxygenase (Photinus pyralis, UniProt P08659); assay: inhibition of purified Photinus pyralis luciferase – biochemical, luminescence, dose response (AID 1891)
[43] = biological target: Complement C1s subcomponent (Homo sapiens, UniProt P09871); assay: Complement C1s ELISA. [Related pubchem assays: 538, 787 ]; type: functional
[44] = suppression of HIF-dependent reporter luminescence – cell-based, dry powder samples, 2158-07, ARNT-TACC3 inhibitor project, dose response (AID 720561); type: functional
[45] = biological target: T4, Low molecular weight phosphotyrosine protein phosphatase (Homo sapiens, UniProt P24666); assay: inhibition of human LMPTP enzyme activity – biochemical, absorbance, pNPP substrate, LMPTP-A isoform, set 2, orthogonal assay, dose response (AID 743308); type: functional
T4 sequence (P24666 whole entry): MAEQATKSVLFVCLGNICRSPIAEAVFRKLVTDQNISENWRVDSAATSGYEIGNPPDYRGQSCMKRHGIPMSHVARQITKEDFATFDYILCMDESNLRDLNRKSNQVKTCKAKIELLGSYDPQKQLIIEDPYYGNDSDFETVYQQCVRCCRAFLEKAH

[46] = biological target: T4, Low molecular weight phosphotyrosine protein phosphatase; assay: inhibition of LMPTP-A enzymatic activity – biochemical, OMFP substrate, fluorescence intensity, set 2, dose response (AID 743307); type: functional
[47] = M. tuberculosis growth inhibition, HTS (AID 449762); type: functional

O=C(C1CCN(c2ccc(C(F)(F)F)cn2)CC1)N(CC1CC1)c1ccc(Cl)cc1
IC50 [1]: 12.6 µM (inactive) | IC50 [2]: 31.7 µM (inactive) | IC50 [3]: 19.3 µM (inactive) | IC50 [4]: 0.123 µM (active)

O=C(O)c1ccccc1C(=O)NNc1ccc(F)cc1
AC50 [5]: 20 µM (inconclusive) | IC50 [6]: > 100 µM (not active) | AC50 [7]: 0.0251 µM (inconclusive) | EC50 [8]: 25.5 µM (active) | EC50 [9]: > 38 µM (not active)

CCCCCCCC/C=C\CCCCCCCCN
IC50 [10]: 14.8 µM (inactive) | IC50 [11]: > 40 µM (inactive)

CCN(CC)C(=O)c1cccc(-n2sc3ccccc3c2=O)c1
IC50 [12]: 16.7 µM (active)

CCn1c(SCC(=O)Nc2ccc3c(c2)c2ccccc2n3CC)nnc1-c1ccco1
IC50 [13]: > 49.8 µM (not active) | IC50 [14]: > 50 µM (not active) | CC50 [15]: 48.9 µM (active)

CN(Cc1cnc2nc(N)nc(N)c2n1)c1ccc(C(=O)N[C@@H](CCC(=O)O)C(=O)O)cc1 [METHOTREXATE]
GI50 [16]: 0.025 µM (active) | GI50 [17]: 0.025 µM (active) | IC50 [18]: > 10 µM (inactive) | IC50 [19]: > 20 µM (inactive) | GI50 [20]: 0.025 µM (active) | IC50 [21]: > 10 µM (inactive)

Cc1noc(C)c1C(=O)N1CCc2ccccc2C1
IC50 [22]: > 100 µM (active)

Clc1ccc(CN=C(Nc2ccccc2)NC2CCCCC2)cc1
IC50 [23]: > 96.6 µM (inactive)

O=C(CSC1=NNC(c2ccccn2)S1)Nc1ccc(C(F)(F)F)cc1 (configuration not stated)
IC50 [24]: > 31.5 µM (inactive) | EC50 [25]: 15.6 µM (active) | EC50 [26]: > 350 µM (not active) | EC50 [27]: > 31.5 µM (inactive) | AC50 [28]: 3.51 µM (active) | IC50 [29]: 7.8 µM (active) | EC50 [30]: 43.2 µM (not active) | IC50 [31]: > 32 µM

CCN1CCN(Cc2nc3ccc([N+](=O)[O-])cc3c(=O)n2-c2cccc(F)c2)CC1
IC50 [32]: 0.31 µM (active) | IC50 [33]: 0.45 µM (active)

CN(Cc1cc(Cl)cc(Cl)c1)[C@H]1C[C@H]2c3[nH]c4ccccc4c3CCN2C(=O)[C@H]1CO
IC50 [34]: 31.7 µM (inactive) | IC50 [35]: 1.64 µM (active) | IC50 [36]: 1.33 µM (active) | IC50 [37]: 80.2 µM (inactive)

O=C1C(Nc2ccccc2)=C(N2CCN(c3ccccc3)CC2)C(=O)c2ccccc21
AC50 [38]: > 70 µM (inactive) | AC50 [39]: > 70 µM (inactive)

COc1ccc(C(=O)Nc2ccc(N3CCOCC3)cc2)cc1OC
EC50 [40]: 1.95 µM (active) | EC50 [41]: > 100 µM (not active) | EC50 [42]: 24.2 µM (active)

O=c1c(-c2ccco2)[n+]([O-])c2ccccc2n1OCc1ccccn1
IC50 [43]: > 50 µM (not active)

Cc1nnc(NC(=O)c2ccc(S(=O)(=O)N3CCCCC3)cc2)o1
AC50 [44]: > 100 µM (inactive)

c1ccc(-c2nc(N3CCSCC3)c3ccccc3n2)cc1
IC50 [45]: > 80 µM (inactive) | IC50 [46]: > 80 µM (inactive)

CC1(c2ccc(Cl)c(Cl)c2)N=C(S)N2C1N=C(S)N2c1ccccc1 (configuration not stated)
IC50 [47]: > 100 µM (active)
